By pEC50 is commonly meant the EC50 on a negative log10 scale, so that one unit is a factor of ten. By pIC50 is commonly meant −log10 of the IC50, conventionally taken in molar units.

Structures are written as SMILES. pEC50, pIC50: −log10 of the molar value. Read-outs that look alike come from different tables or passages of the source.

In assay [1] the test system is TNFα. Put plainly: Cot Monocyte TNFα Cell Based Assay.
The target of assay [2] is Human Cot (Homo sapiens (Human), UniProt P41279). Nature of the assay: High Throughput Cot Biochemical Assay. The note with it: Cot HTRF (TR-FRET) biochemical assay. On the technique in general: Time-resolved FRET reads energy transfer from a long-lived donor to a nearby acceptor.
Where [3] appears, read: Homo sapiens, Monocyte, read-out: EC50 TNF, LPS-stimulated human monocytes, TNFα.
Setting [4] is: read-out: EC50 TNF, LPS-stimulated human monocytes, TNFα.

Chain of Human Cot (P41279 30-397): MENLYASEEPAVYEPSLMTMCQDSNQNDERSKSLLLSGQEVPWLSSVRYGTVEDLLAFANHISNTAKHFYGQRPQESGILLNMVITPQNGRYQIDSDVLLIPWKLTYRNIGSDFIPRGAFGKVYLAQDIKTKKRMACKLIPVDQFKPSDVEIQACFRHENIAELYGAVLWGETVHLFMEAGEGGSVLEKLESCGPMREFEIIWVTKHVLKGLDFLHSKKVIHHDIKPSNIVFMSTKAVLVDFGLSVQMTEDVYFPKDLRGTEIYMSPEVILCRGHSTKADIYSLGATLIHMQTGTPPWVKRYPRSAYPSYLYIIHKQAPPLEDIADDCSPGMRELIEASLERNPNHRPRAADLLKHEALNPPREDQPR

Take `CC(C)(C)CNc1c(C#N)cnc2c(Cl)cc(N[C@@H](c3cccnc3)c3cn(C4COC4)nn3)cc12` [Example 168, (S)-8-chloro-4-(neopentylamino)-6-(((1-(oxetan-3-yl)-1H-1,2,3-triazol-4-yl)(pyridin-3-yl)methyl)amino)quinoline-3-carbonitrile]: in assay [1] (setting [3]), the pEC50 is 6.40. The negative logarithm of the IC50 (pIC50) in assay [2] (IC50 HTRF) was 8.22.
With `Cc1ncccc1[C@H](Nc1cc(Cl)c2ncc(C#N)c(N[C@H](C)c3ccccc3)c2c1)c1cn(C2COC2)nn1` [Example 171, 8-chloro-6-(((S)-(2-methylpyridin-3-yl)(1-(oxetan-3-yl)-1H-1,2,3-triazol-4-yl)methyl)amino)-4-(((R)-1-phenylethyl)amino)quinoline-3-carbonitrile], the pEC50 in assay [1] (setting [3]) was 6.49. This molecule also showed a pIC50 in assay [2] (IC50 HTRF) of 8.00.
Turning to `Cc1ncccc1[C@H](Nc1cc(Cl)c2ncc(C#N)c(Nc3cnc(F)c(F)c3)c2c1)c1cn(C2COC2)nn1` [Example 172, (S)-8-chloro-4-((5,6-difluoropyridin-3-yl)amino)-6-(((2-methylpyridin-3-yl)(1-(oxetan-3-yl)-1H-1,2,3-triazol-4-yl)methyl)amino)quinoline-3-carbonitrile], the pEC50 in assay [1] (setting [3]) is 6.08. The molecule also had a pIC50 in assay [2] (IC50 HTRF) of 8.00.
For `Cc1ncccc1[C@H](Nc1cc(Cl)c2ncc(C#N)c(Nc3cnc(F)c(F)c3)c2c1)c1c[nH]nn1` [Example 173, (S)-8-chloro-4-((5,6-difluoropyridin-3-yl)amino)-6-(((2-methylpyridin-3-yl)(1H-1,2,3-triazol-4-yl)methyl)amino)quinoline-3-carbonitrile], in assay [1] (setting [3]), the pEC50 is 5.95. In addition, the pIC50 in assay [2] (IC50 HTRF) was 8.15.
Consider `CC[C@@H](Nc1c(C#N)cnc2c(Cl)cc(N[C@@H](c3cccnc3)c3cn([C@H]4[C@@H]5CN(C6COC6)C[C@@H]54)nn3)cc12)c1ccccc1` [Example 174, 8-chloro-6-(((S)-(1-((1 R,5S,6s)-3-(oxetan-3-yl)-3-azabicyclo[3.1,0]hexan-6-yl)-1H-1,2,3-triazol-4-yl)(pyridin-3-yl)methyl)amino)-4-(((R)-1-phenylpropyl)amino)quinoline-3-carbonitrile], for which the pEC50 in assay [1] (setting [4]) was 7.27. The pIC50 in assay [2] (read-out: IC50 HTRF) was 8.70.
With `CC[C@@H](Nc1c(C#N)cnc2c(Cl)cc(N[C@@H](c3cccnc3)c3cn(CC#N)nn3)cc12)c1ccccc1` [Example 175, 8-chloro-6-(((S)-(1-(cyanomethyl)-1H-1,2,3-triazol-4-yl)(pyridin-3-yl)methyl)amino)-4-(((R)-1-phenylpropyl)amino)quinoline-3-carbonitrile], the pEC50 in assay [1] (setting [3]) is 7.14. In addition, in assay [2] (IC50 HTRF), the pIC50 was 8.52.
For `CC[C@@H](Nc1c(C#N)cnc2c(Cl)cc(N[C@@H](c3cccnc3)c3cn(CCCN4CCCC4)nn3)cc12)c1ccccc1` [Example 176, 8-chloro-4-(((R)-1-phenylpropyl)amino)-6-(((S)-pyridin-3-yl(1-(3-(pyrrolidin-1-yl)propyl)-1H-1,2,3-triazol-4-yl)methyl)amino)quinoline-3-carbonitrile], the pEC50 in assay [1] (setting [3]) was 7.51. In assay [2] (IC50 HTRF), this molecule showed a pIC50 of 8.70.
For `CC[C@@H](Nc1c(C#N)cnc2c(Cl)cc(N[C@@H](c3cccnc3)c3cn(CCF)nn3)cc12)c1ccccc1` [Example 177, 8-chloro-6-(((S)-(1-(2-fluoroethyl)-1H-1,2,3-triazol-4-yl)(pyridin-3-yl)methyl)amino)-4-(((R)-1-phenylpropyl)amino)quinoline-3-carbonitrile], in assay [1] (setting [3]), the pEC50 was 7.10. In addition, the pIC50 in assay [2] (IC50 HTRF) is 8.70.
Take `N#Cc1cnc2c(Cl)cc(N[C@@H](c3cccnc3)c3c[nH]nn3)cc2c1N[C@@H](CCO)c1ccccc1` [Example 178, 8-chloro-4-(((S)-3-hydroxy-1-phenylpropyl)amino)-6-(((S)-pyridin-3-yl(1H-1,2,3-triazol-4-yl)methyl)amino)quinoline-3-carbonitrile]: in assay [1] (setting [3]), the pEC50 is 6.03. Also, the pIC50 in assay [2] (IC50 HTRF) was 8.15.
As to `N#Cc1cnc2c(Cl)cc(N[C@@H](c3cccnc3)c3c[nH]nn3)cc2c1N[C@H](CCO)c1ccccc1` [Example 179, 8-chloro-4-(((R)-3-hydroxy-1-phenylpropyl)amino)-6-(((S)-pyridin-3-yl(1H-1,2,3-triazol-4-yl)methyl)amino)quinoline-3-carbonitrile], the pEC50 in assay [1] (setting [3]) is less than 5.00. For the same molecule, in assay [2] (IC50 HTRF), the pIC50 is 6.58.
Take `CC[C@@H](Nc1c(C#N)cnc2c(Cl)cc(N[C@@H](c3cccnc3)c3cn([C@H]4[C@@H]5CNC[C@@H]54)nn3)cc12)c1ccccc1` [Example 180, 6-(((S)-(1-((• R,5S,6s)-3-azabicyclo[3.1 0]hexan-6-yl)-1H-1,2,3-triazol-4-yl)(pyridin-3-yl)methyl)amino)-8-chloro-4-(((R)-1-phenylpropyl)amino)-quinoline-3-carbonitrile]: the pEC50 in assay [1] (setting [4]) was 6.98. Besides, the pIC50 in assay [2] (read-out: IC50 HTRF) is 9.00.
For `N#Cc1cnc2c(Cl)cc(N[C@@H](c3cccnc3)c3cn(C4COC4)nn3)cc2c1N[C@H](CCO)c1ccccc1` [Example 183, 8-chloro-4-(((R)-3-hydroxy-1-phenylpropyl)amino)-6-(((S)-(1-(oxetan-3-yl)-1H-1,2,3-triazol-4-yl)(pyridin-3-l)methyl)amino)-quinoline-3-carbonitrile], the pEC50 in assay [1] (setting [4]) was less than 5.00. In addition, the pIC50 in assay [2] (read-out: IC50 HTRF) was 6.45.
Consider `CC(C)n1cc([C@@H](Nc2cc(Cl)c3ncc(C#N)c(N[C@@H](CCO)c4ccccc4)c3c2)c2cccnc2)nn1` [Example 184, 8-chloro-4-(((S)-3-hydroxy-1-phenylpropyl)amino)-6-(((S)-(1-isopropyl-1H-1,2,3-triazol-4-yl)(pyridin-3-l)methyl)amino)-quinoline-3-carbonitrile], for which the pEC50 in assay [1] (setting [4]) was 6.41. The negative logarithm of the IC50 (pIC50) in assay [2] (read-out: IC50 HTRF) is 8.10.
On to `CC(C)n1cc([C@@H](Nc2cc(Cl)c3ncc(C#N)c(N[C@H](CCO)c4ccccc4)c3c2)c2cccnc2)nn1` [Example 185, 8-chloro-4-(((R)-3-hydroxy-1-phenylpropyl)amino)-6-(((S)-(1-isopropyl-1H-1,2,3-triazol-4-yl)(pyridin-3-yl)methyl)amino)quinoline-3-carbonitrile], for which the pEC50 in assay [1] (setting [3]) was 5.01. In assay [2] (IC50 HTRF), this molecule showed a pIC50 of 6.52.
Consider `CC(C)(O)[C@@H](Nc1c(C#N)cnc2c(Cl)cc(N[C@@H](c3cccnc3)c3c[nH]nn3)cc12)c1ccccc1` [Example 186, 8-chloro-4-(((S)-2-hydroxy-2-methyl-1-phenylpropyl)amino)-6-(((S)-pyridin-3-yl(1H-1,2,3-triazol-4-yl)methyl)amino)quinoline-3-carbonitrile], for which, in assay [1] (setting [3]), the pEC50 was 5.18. This molecule gave a pIC50 in assay [2] (IC50 HTRF) of 6.93.
As for `CC(C)n1cc([C@@H](Nc2cc(Cl)c3ncc(C#N)c(N[C@@H](c4ccccc4)C(C)(C)O)c3c2)c2cccnc2)nn1` [Example 187, 8-chloro-4-(((S)-2-hydroxy-2-methyl-1-phenylpropyl)amino)-6-(((S)-(1-isopropyl-1H-1,2,3-triazol-4-yl)(pyridin-3-yl)methyl)amino)-quinoline-3-carbonitrile], the pEC50 in assay [1] (setting [3]) was 5.67. This molecule had a pIC50 in assay [2] (IC50 HTRF) of 7.17.
Regarding `CC(C)(O)[C@H](Nc1c(C#N)cnc2c(Cl)cc(N[C@@H](c3cccnc3)c3c[nH]nn3)cc12)c1ccccc1` [Example 188, 8-chloro-4-(((R)-2-hydroxy-2-methyl-1-phenylpropyl)amino)-6-(((S)-pyridin-3-yl(1H-1,2,3-triazol-4-yl)methyl)amino)quinoline-3-carbonitrile], in assay [1] (setting [3]), the pEC50 was less than 5.00. Further, the pIC50 in assay [2] (IC50 HTRF) was less than 5.00.
For `N#Cc1cnc2c(Cl)cc(N[C@@H](c3cccnc3)c3cn(CCF)nn3)cc2c1Nc1cnc(F)c(F)c1` [Example 189, (S)-8-chloro-4-((5,6-difluoropyridin-3-yl)amino)-6-(((1-(2-fluoroethyl)-1H-1,2,3-triazol-4-yl)(pyridin-3-yl)methyl)amino)quinoline-3-carbonitrile], the pEC50 in assay [1] (setting [3]) is 5.97. In addition, the pIC50 in assay [2] (IC50 HTRF) is 8.10.
For the molecule `CC[C@@H](Nc1c(C#N)cnc2c(Cl)cc(N[C@@H](c3cccnc3)c3cn(C4CC4)nn3)cc12)c1ccccc1` [Example 191, 8-chloro-6-(((S)-(1-cyclopropyl-1H-1,2,3-triazol-4-yl)(pyridin-3-yl)methyl)amino)-4-(((R)-1-phenylpropyl)amino)quinoline-3-carbonitrile], the pEC50 in assay [1] (setting [3]) was 6.98. For the same molecule, the pIC50 in assay [2] (IC50 HTRF) was 8.70.
Regarding `CC[C@@H](Nc1c(C#N)cnc2c(Cl)cc(N[C@@H](c3cccnc3)c3cn(C(C)(C)C)nn3)cc12)c1ccccc1` [Example 192, 6-(((S)-(1-(tert-butyl)-1H-1,2,3-triazol-4-yl)(pyridin-3-yl)methyl)amino)-8-chloro-4-(((R)-1-phenylpropyl)arnino)quinoline-3-carbonitrile], in assay [1] (setting [4]), the pEC50 was 6.73. In assay [2] (read-out: IC50 HTRF), the pIC50 is 8.52.
`CC[C@@H](Nc1c(C#N)cnc2c(Cl)cc(N[C@@H](c3cccnc3)c3cn(C(C)C)nn3)cc12)c1ccccc1` [Example 193, 8-chloro-6-(((S)-(1-isopropyl-1H-1,2,3-triazol-4-yl)(pyridin-3-yl)methyl)amino)-4-(((R)-1-phenylpropyl)amino)quinoline-3-carbonitrile]: the negative-log EC50 (pEC50) in assay [1] (setting [3]) was 6.97. The pIC50 in assay [2] (IC50 HTRF) is 8.70.
With `CC[C@@H](Nc1c(C#N)cnc2c(Cl)cc(N[C@@H](c3cccnc3)c3cn(CC(F)(F)F)nn3)cc12)c1ccccc1` [Example 195, 8-chloro-4-(((R)-1-phenylpropyl)amino)-6-(((S)-pyridin-3-yl(1-(2,2,2-trifluoroethyl)-1H-1,2,3-triazol-4-yl)methyl)amino)quinoline-3-carbonitrile], in assay [1] (setting [3]), the pEC50 was 6.88. This molecule also showed a pIC50 in assay [2] (IC50 HTRF) of 8.40.
For the molecule `N#Cc1cnc2c(Cl)cc(N[C@@H](c3cccnc3)c3cn(C4COC4)nn3)cc2c1Nc1cccc(Cl)c1` [Example 196, (S)-8-chloro-4-((3-chlorophenyl)amino)-6-(((1-(oxetan-3-yl)-1H-1,2,3-triazol-4-yl)(pyridin-3-yl)methyl)amino)quinoline-3-carbonitrile], the pEC50 in assay [1] (setting [3]) is 6.18. The molecule further showed a pIC50 in assay [2] (IC50 HTRF) of 8.22.
